Data on two molecules can be found in ChEMBL document CHEMBL1152778, “Design, synthesis, and biological evaluation of (2R,alphaS)-3,4-dihydro-2-[3-(1,1,2,2-tetrafluoroethoxy)phenyl]-5-[3-(trifluoromethoxy)-phenyl]-alpha-(trifluoromethyl)-1(2H)-quinolineethanol as potent and orally active cholesteryl ester transfer protein inhibitor” (J Med Chem, 2009).

Calls of active or inactive are those of the source. The rule behind the calls is not given here.

Usually IC50 stands for the concentration at which inhibition is half-maximal. Usually inhibition in vivo stands for the share of the control response that was lost under treatment.

Data set [1] has as its target T1, Cholesteryl ester transfer protein (Homo sapiens, UniProt P11597).
T1 sequence (P11597 whole entry): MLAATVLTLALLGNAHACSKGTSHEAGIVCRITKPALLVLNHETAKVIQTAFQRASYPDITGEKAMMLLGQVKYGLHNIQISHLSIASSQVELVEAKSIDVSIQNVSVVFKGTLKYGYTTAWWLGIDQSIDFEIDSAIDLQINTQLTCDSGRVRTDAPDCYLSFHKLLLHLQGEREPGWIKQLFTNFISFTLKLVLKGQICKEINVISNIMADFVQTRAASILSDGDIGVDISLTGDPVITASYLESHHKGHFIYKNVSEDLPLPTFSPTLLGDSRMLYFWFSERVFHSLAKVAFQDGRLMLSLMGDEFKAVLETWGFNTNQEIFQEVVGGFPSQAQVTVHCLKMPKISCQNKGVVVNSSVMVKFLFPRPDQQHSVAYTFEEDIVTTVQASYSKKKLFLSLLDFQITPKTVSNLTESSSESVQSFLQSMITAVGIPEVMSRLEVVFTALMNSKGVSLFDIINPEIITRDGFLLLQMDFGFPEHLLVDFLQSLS
Briefly: Inhibition of CETP-mediated transfer of [3H]cholesteryl ester from HDL donar particles to LDL acceptor particles.

The target in data set [2] is Phospholipid transfer protein (Homo sapiens) (UniProt P55058). Briefly: Inhibition of PLTP activity assessed as phosphatidylcholine transferred from [3H]phosphatidylcholine (dipalmitoyl)-labeled liposomes to HDL by cell based liquid scintillation counter.
Chain of Phospholipid transfer protein (Homo sapiens) (P55058 whole entry): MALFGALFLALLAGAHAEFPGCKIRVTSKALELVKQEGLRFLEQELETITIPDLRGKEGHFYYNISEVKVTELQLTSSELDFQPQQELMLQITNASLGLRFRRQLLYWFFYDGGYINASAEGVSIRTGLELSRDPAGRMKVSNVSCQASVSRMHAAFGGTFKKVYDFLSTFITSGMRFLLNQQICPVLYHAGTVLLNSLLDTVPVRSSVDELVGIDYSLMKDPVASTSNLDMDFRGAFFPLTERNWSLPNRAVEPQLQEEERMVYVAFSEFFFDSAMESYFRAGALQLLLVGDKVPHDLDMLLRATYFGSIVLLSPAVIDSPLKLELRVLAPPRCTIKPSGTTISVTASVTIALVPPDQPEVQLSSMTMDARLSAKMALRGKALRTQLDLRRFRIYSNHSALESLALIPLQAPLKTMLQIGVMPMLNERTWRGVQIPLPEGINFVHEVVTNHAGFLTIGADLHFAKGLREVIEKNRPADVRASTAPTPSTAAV
In data set [3] the target is T2, Phosphatidylcholine-sterol acyltransferase (Homo sapiens) (UniProt P04180).
T2 sequence (whole entry): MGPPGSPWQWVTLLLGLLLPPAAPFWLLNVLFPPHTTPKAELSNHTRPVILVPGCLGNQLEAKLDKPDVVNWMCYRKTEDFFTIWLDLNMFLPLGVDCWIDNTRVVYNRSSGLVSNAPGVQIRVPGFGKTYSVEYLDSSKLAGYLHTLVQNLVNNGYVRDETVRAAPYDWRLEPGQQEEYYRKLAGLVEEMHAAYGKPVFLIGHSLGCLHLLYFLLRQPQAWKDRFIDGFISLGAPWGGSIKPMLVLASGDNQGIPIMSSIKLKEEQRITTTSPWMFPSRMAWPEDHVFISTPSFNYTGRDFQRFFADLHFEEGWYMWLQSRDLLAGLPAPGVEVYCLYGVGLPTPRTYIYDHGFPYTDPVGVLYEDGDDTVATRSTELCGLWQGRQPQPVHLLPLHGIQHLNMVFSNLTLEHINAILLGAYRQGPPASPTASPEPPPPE
Kind of data set: Inhibition of LCAT activity in human plasma assessed as change in cholesteryl ester/free cholesterol ratio by cell based assay.

Data set [4] deals with T3, Hepatic triacylglycerol lipase (Homo sapiens) (UniProt P11150).
T3 sequence (whole entry): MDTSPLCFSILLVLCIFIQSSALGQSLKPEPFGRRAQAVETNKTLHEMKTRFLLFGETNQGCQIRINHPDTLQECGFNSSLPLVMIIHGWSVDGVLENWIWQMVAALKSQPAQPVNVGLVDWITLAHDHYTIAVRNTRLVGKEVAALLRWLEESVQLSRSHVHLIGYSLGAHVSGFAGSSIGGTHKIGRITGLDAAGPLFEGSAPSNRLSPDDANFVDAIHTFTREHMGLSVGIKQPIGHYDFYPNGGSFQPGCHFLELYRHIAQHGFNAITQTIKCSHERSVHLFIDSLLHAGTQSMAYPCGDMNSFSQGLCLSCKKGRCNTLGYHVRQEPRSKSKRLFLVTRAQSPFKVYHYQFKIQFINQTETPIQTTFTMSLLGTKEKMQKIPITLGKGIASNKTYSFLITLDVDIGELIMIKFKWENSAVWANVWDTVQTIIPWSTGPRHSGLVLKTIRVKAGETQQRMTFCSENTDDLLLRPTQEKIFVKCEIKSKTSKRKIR
Briefly: Inhibition of hepatic lipase activity assessed as release of free fatty acid from hydrolysis of VLDL by cell based assay.

Data set [5] concerns the target T4, Lipoprotein lipase (Homo sapiens) (UniProt P06858).
T4 sequence (whole entry): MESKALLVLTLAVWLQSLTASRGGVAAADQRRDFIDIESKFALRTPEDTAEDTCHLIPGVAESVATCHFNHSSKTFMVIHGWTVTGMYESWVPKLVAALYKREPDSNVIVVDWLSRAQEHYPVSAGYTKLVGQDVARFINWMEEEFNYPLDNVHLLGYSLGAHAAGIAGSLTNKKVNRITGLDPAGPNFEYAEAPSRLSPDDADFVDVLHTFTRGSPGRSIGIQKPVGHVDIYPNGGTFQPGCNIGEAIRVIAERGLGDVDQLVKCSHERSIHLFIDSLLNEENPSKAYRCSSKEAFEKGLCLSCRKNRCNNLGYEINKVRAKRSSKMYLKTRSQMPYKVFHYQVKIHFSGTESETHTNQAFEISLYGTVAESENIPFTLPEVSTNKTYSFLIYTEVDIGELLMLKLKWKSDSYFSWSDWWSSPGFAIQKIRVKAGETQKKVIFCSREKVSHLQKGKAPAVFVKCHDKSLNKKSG
Briefly: Inhibition of lipoprotein lipase activity assessed as release of free fatty acid from hydrolysis of VLDL by cell based assay.

Data set [6] has as its target T5, Microsomal triglyceride transfer protein large subunit (Homo sapiens) (UniProt P55157).
T5 sequence (whole entry): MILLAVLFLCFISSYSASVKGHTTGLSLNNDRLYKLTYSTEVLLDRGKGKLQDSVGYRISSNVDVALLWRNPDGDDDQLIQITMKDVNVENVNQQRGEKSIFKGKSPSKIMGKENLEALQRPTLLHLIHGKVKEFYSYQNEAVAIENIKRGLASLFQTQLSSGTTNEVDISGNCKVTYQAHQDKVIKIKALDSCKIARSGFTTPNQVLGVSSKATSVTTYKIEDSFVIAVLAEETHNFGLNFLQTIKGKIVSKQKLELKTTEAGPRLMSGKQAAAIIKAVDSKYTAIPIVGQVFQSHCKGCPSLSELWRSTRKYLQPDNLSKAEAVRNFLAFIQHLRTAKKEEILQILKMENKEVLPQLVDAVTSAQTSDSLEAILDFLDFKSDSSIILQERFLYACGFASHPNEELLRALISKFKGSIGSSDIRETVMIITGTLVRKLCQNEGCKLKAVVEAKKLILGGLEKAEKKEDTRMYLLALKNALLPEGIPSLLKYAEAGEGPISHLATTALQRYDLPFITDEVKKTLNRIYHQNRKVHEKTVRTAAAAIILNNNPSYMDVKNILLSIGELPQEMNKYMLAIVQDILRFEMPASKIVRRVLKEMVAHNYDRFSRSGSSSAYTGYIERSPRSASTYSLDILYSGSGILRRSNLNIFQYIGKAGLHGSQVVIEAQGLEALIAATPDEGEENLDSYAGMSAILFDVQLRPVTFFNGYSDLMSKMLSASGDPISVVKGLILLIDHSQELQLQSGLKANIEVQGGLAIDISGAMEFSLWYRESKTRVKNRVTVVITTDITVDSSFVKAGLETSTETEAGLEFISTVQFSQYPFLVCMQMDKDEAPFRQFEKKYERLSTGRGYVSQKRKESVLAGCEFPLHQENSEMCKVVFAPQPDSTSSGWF
Briefly: Inhibition of microsomal triglyceride transfer protein by cell based assay.

In data set [7] the target is T6, Endothelial lipase (Homo sapiens) (UniProt Q9Y5X9).
T6 sequence (whole entry): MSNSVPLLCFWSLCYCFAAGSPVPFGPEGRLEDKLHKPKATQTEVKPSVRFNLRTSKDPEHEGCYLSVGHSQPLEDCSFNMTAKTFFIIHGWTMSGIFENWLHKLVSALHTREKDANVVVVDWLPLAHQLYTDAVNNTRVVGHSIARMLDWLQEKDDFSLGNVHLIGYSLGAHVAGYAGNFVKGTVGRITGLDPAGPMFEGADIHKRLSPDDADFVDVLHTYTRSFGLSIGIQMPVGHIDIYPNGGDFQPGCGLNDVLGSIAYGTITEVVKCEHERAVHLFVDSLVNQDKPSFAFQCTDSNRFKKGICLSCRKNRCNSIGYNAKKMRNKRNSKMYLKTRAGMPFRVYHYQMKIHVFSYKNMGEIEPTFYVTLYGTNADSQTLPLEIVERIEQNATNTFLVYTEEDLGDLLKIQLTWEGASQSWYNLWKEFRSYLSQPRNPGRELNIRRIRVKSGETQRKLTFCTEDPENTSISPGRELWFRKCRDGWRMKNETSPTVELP
Kind of data set: Inhibition of endothelial lipase by cell based assay.

The subject of another data set is Hamster. Briefly: Increase in HDLC level in high-fat fed hamster model at 30 mg/kg, po for 5 days measured after 2 hrs of last dose. The format is functional, Cricetinae.
The test system of the next data set is Mus musculus. Briefly: Increase in HDLC level in normal chow diet-fed human CETP transgenic mouse model at 30 mg/kg, po for 5 days measured after 2 hrs of last dose. Format: functional.
Data set [8] relates to Cynomolgus monkey. Kind of data set: Increase in HDLC level in normal chow diet-fed cynomolgus monkey at 3 mg/kg, po for 5 days measured after 10 hrs of last dose. Format: functional, Macaca fascicularis.
For data set [9], the system named is Cynomolgus monkey. Briefly: Increase in HDLC level in normal chow diet-fed cynomolgus monkey at 10 mg/kg, po for 5 days measured after 10 hrs of last dose. Format: functional, Macaca fascicularis.
The test system of data set [10] is Cynomolgus monkey. Kind of data set: Increase in HDLC level in normal chow diet-fed cynomolgus monkey at 30 mg/kg, po for 5 days measured after 10 hrs of last dose. The format is functional, Macaca fascicularis.
Data set [11] has as its system Cynomolgus monkey. Briefly: Ex vivo inhibition of CETP in normal chow diet-fed cynomolgus monkey at 3 mg/kg, po for 5 days by Roar assay. The format is functional. The conditions noted are these: Macaca fascicularis, 120 h.
Data set [12] deals with Cynomolgus monkey. Briefly: Ex vivo inhibition of CETP in normal chow diet-fed cynomolgus monkey at 10 mg/kg, po for 5 days by Roar assay. The format is functional. As to conditions: Macaca fascicularis, 120 h.
In data set [13] the test system is Cynomolgus monkey. Briefly: Ex vivo inhibition of CETP in normal chow diet-fed cynomolgus monkey at 30 mg/kg, po for 5 days by Roar assay. The conditions noted are these: Macaca fascicularis, 120 h. The format is functional.
Data set [14] can be described thus: Plasma concentration in normal chow diet-fed cynomolgus monkey at 3 mg/kg, po for 5 days. The format is ADME, organism-based, Macaca fascicularis. Also on record: dose 3 mg/kg, route oral.
A short description of data set [15]: Plasma concentration in normal chow diet-fed cynomolgus monkey at 10 mg/kg, po for 5 days. Format: ADME, organism-based, Macaca fascicularis. Details: dose 10 mg/kg, route oral.
Data set [16] in a line: Plasma concentration in normal chow diet-fed cynomolgus monkey at 30 mg/kg, po for 5 days. The format is ADME, organism-based, Macaca fascicularis. Also on record: dose 30 mg/kg, route oral.

In data set [1], `OC(CN1c2cccc(-c3cccc(OC(F)(F)F)c3)c2CCC1c1cccc(OC(F)(F)C(F)F)c1)C(F)(F)F` (racemic) returned a half-inhibitory concentration (IC50) of 45 nM.
In the case of `CCOC(=O)N1c2ccc(C(F)(F)F)cc2[C@@H](N(Cc2cc(C(F)(F)F)cc(C(F)(F)F)c2)C(=O)OC)C[C@H]1CC` [TORCETRAPIB], the result in data set [2], in data set [3], in data set [4], in data set [5], in data set [6] and in [7] was inactive. Further, the Activity in the data set with Hamster came out at 44%; with Mus musculus, 28%; in the data set on Cynomolgus monkey [8] it was 24%; with Cynomolgus monkey [9], 41%; in the data set with Cynomolgus monkey [10], 44%. In the data set with Cynomolgus monkey [11], this molecule had an inhibition in vivo at 3 mg/kg of 35%. The same molecule showed an inhibition in vivo at 10 mg/kg with Cynomolgus monkey [12] of 66%. The same molecule yielded an inhibition in vivo at 30 mg/kg in the data set with Cynomolgus monkey [13] of 85%. In addition, the results for the concentration at 120 h in data set [14], in [15] and in data set [16] were 300 nM, 1300 nM and 2900 nM, respectively.
